Data on 17 compounds can be found in patent US9616063B2, “1-[2-(aminomethyl)benzyl]-2-thioxo-1,2,3,5-tetrahydro-4H-pyrrolo[3,2-d]pyrimidin-4-ones as inhibitors of myeloperoxidase” (AstraZeneca AB, priority 2014, dated 2017).

For assay [1], the target named is baculovirus-expressed recombinant human TPO (Homo sapiens (Human), UniProt P07202). In words: TPO inhibition (hypoiodous acid production, absorbance at 353 nm). It is filed as biochemical. On the procedure: To detect thyroid peroxidase (TPO) inhibitory activity, the production of hypoiodous acid (HOI) was quantified. HOI was detected by reacting it with methionine, which is converted to dehydro-methionine, which in turn is detected by reacting it with excess iodide at acidic pH. The reaction converts I^− to I3^− that has absorbance at 353 nm. In brief, 0.6 μL compound serially diluted in DMSO was added to 25 μL 50 nM baculovirus-expressed recombinant human TPO (obtained from RSR Ltd, Cardiff, UK) in assay buffer (100 mM Na2HPO4/NaH2PO4, pH 7.4), after which absorbance at 353 nm was read to obtain a blank value. The enzyme reaction was initiated by the addition of 25 μL of a mix consisting of 2 mM methionine, 20 μM NaI and 100 μM H2O2 in assay buffer, and stopped by the addition of 10 μL catalase, 0.25 mg/mL. […] IC50 values of the compounds tested were obtained using standard procedures.
baculovirus-expressed recombinant human TPO, sequence (P07202 19-933): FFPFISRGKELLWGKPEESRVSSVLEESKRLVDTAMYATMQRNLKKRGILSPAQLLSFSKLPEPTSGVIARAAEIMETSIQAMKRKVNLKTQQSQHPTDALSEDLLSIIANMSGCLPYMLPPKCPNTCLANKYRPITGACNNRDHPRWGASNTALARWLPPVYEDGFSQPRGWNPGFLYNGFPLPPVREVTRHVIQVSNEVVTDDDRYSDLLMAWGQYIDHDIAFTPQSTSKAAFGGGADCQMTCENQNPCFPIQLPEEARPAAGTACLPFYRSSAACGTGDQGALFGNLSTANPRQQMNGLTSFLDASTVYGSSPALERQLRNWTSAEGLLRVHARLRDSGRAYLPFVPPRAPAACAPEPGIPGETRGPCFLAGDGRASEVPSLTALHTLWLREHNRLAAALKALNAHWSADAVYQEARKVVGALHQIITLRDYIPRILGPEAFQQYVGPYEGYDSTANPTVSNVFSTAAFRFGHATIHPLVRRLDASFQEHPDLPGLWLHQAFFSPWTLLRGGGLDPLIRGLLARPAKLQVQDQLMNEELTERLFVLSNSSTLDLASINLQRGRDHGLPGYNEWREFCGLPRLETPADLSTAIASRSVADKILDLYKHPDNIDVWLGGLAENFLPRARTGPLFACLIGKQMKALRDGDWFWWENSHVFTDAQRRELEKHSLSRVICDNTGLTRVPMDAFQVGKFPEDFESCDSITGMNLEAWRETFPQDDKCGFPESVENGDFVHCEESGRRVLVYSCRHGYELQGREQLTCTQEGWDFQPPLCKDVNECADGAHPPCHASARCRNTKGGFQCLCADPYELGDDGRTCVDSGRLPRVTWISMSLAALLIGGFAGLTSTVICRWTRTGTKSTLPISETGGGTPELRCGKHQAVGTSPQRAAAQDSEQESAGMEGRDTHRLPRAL

Assay [2] in a line: Plasma urate levels in Healthy Volunteers after MPO inhibitor treatment (clinical trial). It is filed as in vivo, human. Particulars: daily dose for 10 days, FIG. 2, NCT00914303. On the procedure: Subjects received placebo or the indicated daily dose for 10 days, and the difference in plasma urate levels versus baseline was calculated. Each symbol represents one subject.
For assay [3] the following is noted: healthy subjects, clinical trial, data not shown; cited from earlier work.
Assay [4] addresses MPO purified from the human cell line HL60 (Homo sapiens (Human), UniProt P05164). As to the kind of experiment: MPO inhibition, Test A (loss of ascorbate, absorbance at 260 nm). It is filed as biochemical. Particulars: absorbance at 260 nm 20 minutes after substrate addition. On the procedure:
(§1) Methods for the determination of MPO inhibitory activity are disclosed in WO 02/090575. The pharmacological activity of compounds disclosed herein was tested in the following screen (Test A) in which the compounds were tested in the presence of ascorbate, which reacts with MPO-derived hypochlorous acid (HOCl) to form dehydro-ascorbate. The loss of ascorbate is followed by measuring absorbance at 260 nm.
(§2) Assay buffer: 100 μM diethyl triamine pentaacetic acid (DTPA) in buffer consisting of 10 mM Na2HPO4/NaH2PO4, 3 mM KCl in 140 mM NaCl, pH 7.4.
(§3) Enzyme solution: MPO purified from the human cell line HL60, 1.38 nM (final concentration 0.7 nM) and L-ascorbate, 100 μM (final concentration 50 μM) in Assay buffer
(§4) Substrate solution: H2O2, 98 μM (final concentration 49 μM) Forty μL of the enzyme solution was added to 0.6 μL compound serially diluted in DMSO. Absorbance was measured at 260 nm to obtain a compound blank value. After an additional 10 min, 40 μL of the substrate solution was added and the absorbance at 260 nm was recorded between 4 and 40 min to obtain kinetic readings of enzyme activity.

The subject of assay [5] is MPO purified from the human cell line HL60. The description is as above. It is filed as biochemical. Conditions: ratio TPO to MPO, selectivity for MPO over TPO. As to the method:
as §1, §2, §3, §4

Assay [6] concerns the target activated MPO (Homo sapiens (Human), UniProt P05164). As to the kind of experiment: Urate production from xanthine by activated MPO in vitro (LC-MS). It is filed as biochemical. Conditions: activated MPO incubated with xanthine and titrated compound for 80 min. From the text: The dotted line represents the urate formed in the presence of unactivated MPO.
In addition to MPOs role in maintaining elevated urate levels due to poor perfusion as discussed above, we also propose that MPO per se may generate urate by oxidizing xanthine in concert with xanthine oxidase.

MPO purified from the human cell line HL60 (Homo sapiens (Human), UniProt P05164), sequence (P05164 whole entry, looked up, change not shown): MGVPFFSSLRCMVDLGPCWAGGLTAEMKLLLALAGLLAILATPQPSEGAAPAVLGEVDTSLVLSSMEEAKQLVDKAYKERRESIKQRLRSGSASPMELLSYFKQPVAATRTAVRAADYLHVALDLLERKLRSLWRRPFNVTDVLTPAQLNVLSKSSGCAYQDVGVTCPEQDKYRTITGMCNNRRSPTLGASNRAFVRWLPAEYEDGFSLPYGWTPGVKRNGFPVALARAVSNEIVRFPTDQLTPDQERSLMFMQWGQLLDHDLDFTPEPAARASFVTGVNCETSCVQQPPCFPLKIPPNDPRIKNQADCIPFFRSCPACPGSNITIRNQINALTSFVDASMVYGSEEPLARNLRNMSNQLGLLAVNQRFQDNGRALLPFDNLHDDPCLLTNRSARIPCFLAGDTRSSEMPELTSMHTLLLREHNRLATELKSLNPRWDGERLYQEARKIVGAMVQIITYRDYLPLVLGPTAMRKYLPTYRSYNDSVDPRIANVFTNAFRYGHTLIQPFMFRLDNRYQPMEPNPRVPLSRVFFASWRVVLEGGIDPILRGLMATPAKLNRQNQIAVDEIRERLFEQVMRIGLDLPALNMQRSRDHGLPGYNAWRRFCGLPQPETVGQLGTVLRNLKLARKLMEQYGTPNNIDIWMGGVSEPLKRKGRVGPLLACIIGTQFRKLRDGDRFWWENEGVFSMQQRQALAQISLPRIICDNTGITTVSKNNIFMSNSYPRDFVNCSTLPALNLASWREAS
MPO purified from the human cell line HL60 (Homo sapiens (Human), UniProt P05164), sequence (P05164 whole entry, looked up, change not shown): as above
activated MPO, sequence (P05164 49-745): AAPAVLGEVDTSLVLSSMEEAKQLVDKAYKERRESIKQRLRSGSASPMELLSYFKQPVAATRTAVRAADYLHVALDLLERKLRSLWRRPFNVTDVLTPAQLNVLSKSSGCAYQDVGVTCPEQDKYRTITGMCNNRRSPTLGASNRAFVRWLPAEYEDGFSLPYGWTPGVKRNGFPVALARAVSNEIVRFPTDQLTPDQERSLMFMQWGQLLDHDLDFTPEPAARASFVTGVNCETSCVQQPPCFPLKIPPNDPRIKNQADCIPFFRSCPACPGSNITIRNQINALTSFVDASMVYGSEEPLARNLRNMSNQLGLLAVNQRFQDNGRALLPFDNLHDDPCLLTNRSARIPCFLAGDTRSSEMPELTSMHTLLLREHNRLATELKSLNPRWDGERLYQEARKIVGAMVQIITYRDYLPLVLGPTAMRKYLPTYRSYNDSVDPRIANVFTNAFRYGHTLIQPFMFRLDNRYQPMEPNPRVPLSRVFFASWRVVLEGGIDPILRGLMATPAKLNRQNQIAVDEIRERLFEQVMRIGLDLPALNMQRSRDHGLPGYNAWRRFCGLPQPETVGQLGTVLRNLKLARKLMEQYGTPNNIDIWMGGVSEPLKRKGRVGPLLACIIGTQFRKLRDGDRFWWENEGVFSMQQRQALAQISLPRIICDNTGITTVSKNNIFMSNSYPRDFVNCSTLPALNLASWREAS

For the compound `CC(N)c1cc(Cl)ccc1Cn1c(=S)[nH]c(=O)c2[nH]ccc21` (racemic) [Example 2, 1-[2-(1-Aminoethyl)-4-chlorobenzyl]-2-thioxo-1,2,3,5-tetrahydro-4H-pyrrolo[3,2-d]pyrimidin-4-one], the IC50 (in general, the concentration needed to halve the response being measured) in assay [1] is 8.8 µM.
Take `CC(C)OCCn1c(=S)[nH]c(=O)c2[nH]ccc21` [AZD3241]: in assay [2], the “reduction of plasma urate levels versus baseline” value is given as “dose-dependently reduced urate levels”.
On to `O=c1[nH]c(=S)n(C[C@H]2CCCO2)c2nc[nH]c12` [AZD5904], for which the “reduction of urate levels” value in assay [3] is “dose-dependently reduced urate levels”.
Consider `CC[C@@H](N)c1cc(Cl)ccc1Cn1c(=S)[nH]c(=O)c2[nH]ccc21` [Example 1, 1-{2-[(1R)-1-Aminopropyl]-4-chlorobenzyl}-2-thioxo-1,2,3,5-tetrahydro-4H-pyrrolo[3,2-d]pyrimidin-4-one], for which the values for the 50% inhibitory concentration (IC50) in assay [4] and in assay [1] were 0.0086 µM and 4.4 µM, respectively. Further, the “IC50 (TPO)/IC50 (MPO)” value in assay [5] is 512.
Turning to `C[C@@H](N)c1cc(Cl)ccc1Cn1c(=S)[nH]c(=O)c2[nH]ccc21` [Example 3, 1-{2-[(1R)-1-Aminoethyl]-4-chlorobenzyl}-2-thioxo-1,2,3,5-tetrahydro-4H-pyrrolo[3,2-d]pyrimidin-4-one], the IC50 in assay [1] turned out to be 4.3 µM. Moreover, the “inhibition of urate production by activated MPO” value in assay [6] was “concentration-dependently inhibited”.
As to `C[C@H](N)c1cc(Cl)ccc1Cn1c(=S)[nH]c(=O)c2[nH]ccc21` [Example 4b, 1-{2-[(1S)-1-Aminoethyl]-4-chlorobenzyl}-2-thioxo-1,2,3,5-tetrahydro-4H-pyrrolo[3,2-d]pyrimidin-4-one], the IC50 in assay [1] was 68 µM.
Consider `CNC(C)c1cc(Cl)ccc1Cn1c(=S)[nH]c(=O)c2[nH]ccc21` (stereo not shown) [Example 5, 1-{4-Chloro-2-[1-(methylamino)ethyl]benzyl}-2-thioxo-1,2,3,5-tetrahydro-4H-pyrrolo[3,2-d]pyrimidin-4-one], for which the 50% inhibitory concentration (IC50) in assay [4] stood at 0.019 µM; in assay [1] it was 8.9 µM. In addition, the “IC50 (TPO)/IC50 (MPO)” value in assay [5] turned out to be 468.
For `CCNCc1cc(Cl)ccc1Cn1c(=S)[nH]c(=O)c2[nH]ccc21` [Example 6, 1-{4-Chloro-2-[(ethylamino)methyl]benzyl}-2-thioxo-1,2,3,5-tetrahydro-4H-pyrrolo[3,2-d]pyrimidin-4-one] the same measures were 0.022 µM, 10 µM and 455.
`NCc1cc(Cl)ccc1Cn1c(=S)[nH]c(=O)c2[nH]ccc21` [Example 7, 1-[2-(Aminomethyl)-4-chlorobenzyl]-2-thioxo-1,2,3,5-tetrahydro-4H-pyrrolo[3,2-d]pyrimidin-4-one]: the IC50 in assay [1] amounted to 11 µM.
Consider `CNCc1cc(Cl)ccc1Cn1c(=S)[nH]c(=O)c2[nH]ccc21` [Example 8, 1-{4-Chloro-2-[(methylamino)methyl]benzyl}-2-thioxo-1,2,3,5-tetrahydro-4H-pyrrolo[3,2-d]pyrimidin-4-one], for which the IC50 in assay [4] was determined as 0.013 µM; in assay [1], 13 µM. The “IC50 (TPO)/IC50 (MPO)” value in assay [5] was found to be 952.
On to `O=c1[nH]c(=S)n(Cc2ccccc2CNCC2CCC2)c2cc[nH]c12` [Example 9, 1-(2-{[(Cyclobutylmethyl)amino]methyl}benzyl)-2-thioxo-1,2,3,5-tetrahydro-4H-pyrrolo[3,2-d]pyrimidin-4-one], for which the figures for the IC50 in assay [4] and in assay [1] were 0.029 µM and 16 µM, respectively. In addition, in assay [5], the “IC50 (TPO)/IC50 (MPO)” value worked out at 552.
The matching figures for `O=c1[nH]c(=S)n(Cc2ccccc2CNC2CCC2)c2cc[nH]c12` [Example 10, 1-{2-[(Cyclobutylamino)methyl]benzyl}-2-thioxo-1,2,3,5-tetrahydro-4H-pyrrolo[3,2-d]pyrimidin-4-one]: 0.01 µM, 11 µM and 1100.
With `O=c1[nH]c(=S)n(Cc2ccccc2CNC2CCCC2)c2cc[nH]c12` [Example 11, 1-{2-[(Cyclopentylamino)methyl]benzyl}-2-thioxo-1,2,3,5-tetrahydro-4H-pyrrolo[3,2-d]pyrimidin-4-one], the values for the IC50 in assay [4] and in assay [1] were 0.014 µM and 19 µM, respectively. Moreover, the “IC50 (TPO)/IC50 (MPO)” value in assay [5] is given as 1357.
For `CC(C)CNCc1ccccc1Cn1c(=S)[nH]c(=O)c2[nH]ccc21` [Example 12, 1-(2-{[(2-Methylpropyl)amino]methyl}benzyl)-2-thioxo-1,2,3,5-tetrahydro-4H-pyrrolo[3,2-d]pyrimidin-4-one] the same measures were 0.054 µM, 46 µM and 852.
The matching figures for `CC(C)NCc1ccccc1Cn1c(=S)[nH]c(=O)c2[nH]ccc21` [Example 13, 1-{2-[(Propan-2-ylamino)methyl]benzyl}-2-thioxo-1,2,3,5-tetrahydro-4H-pyrrolo[3,2-d]pyrimidin-4-one]: 0.024 µM, 38 µM and 1609.
For `NCc1cc(C(F)(F)F)ccc1Cn1c(=S)[nH]c(=O)c2[nH]ccc21` [Example 14, 1-[2-(Aminomethyl)-4-(trifluoromethyl)benzyl]-2-thioxo-1,2,3,5-tetrahydro-4H-pyrrolo[3,2-d]pyrimidin-4-one] the same measures were 0.04 µM, 28 µM and 697.
`CNCc1cc(C(F)(F)F)ccc1Cn1c(=S)[nH]c(=O)c2[nH]ccc21` [Example 15, 1-{2-[(Methylamino)methyl]-4-(trifluoromethyl)benzyl}-2-thioxo-1,2,3,5-tetrahydro-4H-pyrrolo[3,2-d]pyrimidin-4-one]: the half-inhibitory concentration (IC50) in assay [4] was found to be 0.049 µM; in assay [1] it was 11 µM. The “IC50 (TPO)/IC50 (MPO)” value in assay [5] is listed as 224.
